Key:
[1] = test system: Candida; test: Antimycotic in vivo activity (oral) on candidosis of mice; design: species or system mice (SPF-CF1); conditions: in words, 25-100 mg/kg, versus compounds (A) and (B)
Procedure: Mice of the SPF-CF1 type were infected intravenously with 1-2×10^6 logarithmically growing Candida cells suspended in physiological saline solution. The animals were treated orally with in each case 25-100 mg of the products/kg of body weight one hour before and seven hours after infection. Untreated animals died 3 to 6 days after infection. The survival rate on the 6th day after infection was about 5% in the untreated control animals.

[2] = test system: dermatophytes, molds and yeasts; test: Antimycotic in vitro activity, series dilution test (overall comparison with compound (B)); format: cell-based; conditions: in words; versus compound (B) known from the prior art
Procedure: The in vitro tests were carried out in a series dilution test using germ inocular of on average 5×10^3 to 10^4 germs/ml of substrate. The nutrient medium used was (a) for dermatophytes and molds. Sabourand's milieu d'epreuve (b) for yeasts: meat extract/glucose broth. The incubation temperature was 28° C. to 37° C. and the incubation period was 24 to 96 hours for yeasts and 96 hours for dermatophytes and molds.

[3] = test system: Trichophyton von mentagrophytes; test: Antimicrobial in vivo activity (local), experimental trichophytosis in guinea pigs; conditions: 0.1% strength solution, 1x daily

## CON=CC(C)(C)C(O)(CSc1ccc(Cl)cc1)Cn1ccnc1 (stereo not shown) [Example 20]
[1]
  action against candidosis of mice compared with compounds (A) and (B): better action than compounds (A) and (B)
[2]
  antimycotic action in vitro compared with compound (B): better antimycotic action than compound (B)
[3]
  action (local) on experimental trichophytosis, in words: good action

## CC(C)(C=NOCC1CCCCC1)C(O)(Cn1cncn1)c1ccc(Cl)cc1 (stereo not shown) [Example 39]
[1]
  action against candidosis of mice compared with compounds (A) and (B): better action than compounds (A) and (B)

## C=CCON=CC(C)(C)C(O)(Cn1cncn1)c1ccc(-c2ccccc2)cc1 (stereo not shown) [Example 36]
[2]
  antimycotic action in vitro compared with compound (B): better antimycotic action than compound (B)

## CCCCC(O)(Cn1cncn1)C(C)(C)C=NOCc1ccc(Cl)cc1Cl (stereo not shown) [Example 47]
[2]
  antimycotic action in vitro compared with compound (B): better antimycotic action than compound (B)

## CCCCON=CC(C)(C)C(O)(Cn1cncn1)c1ccc(Cl)cc1 (stereo not shown) [Example 40]
[1]
  action against candidosis of mice compared with compounds (A) and (B): better action than compounds (A) and (B)
[3]
  action (local) on experimental trichophytosis, in words: good action

## CON=CC(C)(C)C(O)(CSc1ccc(Cl)cc1)Cn1cncn1 (stereo not shown) [Example 32]
[1]
  action against candidosis of mice compared with compounds (A) and (B): better action than compounds (A) and (B)
[2]
  antimycotic action in vitro compared with compound (B): better antimycotic action than compound (B)
[3]
  action (local) on experimental trichophytosis, in words: good action

## CON=CC(C)(C)C(O)(Cn1cncn1)c1ccc(-c2ccccc2)cc1 (stereo not shown) [Example 35]
[2]
  antimycotic action in vitro compared with compound (B): better antimycotic action than compound (B)

## CON=CC(C)(C)C(O)(COc1ccc(Cl)cc1)Cn1cncn1 (stereo not shown) [Example 4]
[1]
  action against candidosis of mice compared with compounds (A) and (B): better action than compounds (A) and (B)
[2]
  antimycotic action in vitro compared with compound (B): better antimycotic action than compound (B)

## CCCON=CC(C)(C)C(O)(Cn1cncn1)c1ccc(Cl)cc1 (stereo not shown) [Example 38]
[1]
  action against candidosis of mice compared with compounds (A) and (B): better action than compounds (A) and (B)
[2]
  antimycotic action in vitro compared with compound (B): better antimycotic action than compound (B)
[3]
  action (local) on experimental trichophytosis, in words: good action

## CON=CC(C)(C)C(O)(CSc1ccc(Br)cc1)Cn1ccnc1 (stereo not shown) [Example 21]
[2]
  antimycotic action in vitro compared with compound (B): better antimycotic action than compound (B)

## CC(C)(C=NOCc1ccc(Cl)cc1)C(O)(CCc1ccc(Cl)cc1)Cn1cncn1 (stereo not shown) [Example 28]
[1]
  action against candidosis of mice compared with compounds (A) and (B): better action than compounds (A) and (B)
[2]
  antimycotic action in vitro compared with compound (B): better antimycotic action than compound (B)

## CCCCC(O)(Cn1cncn1)C(C)(C)C=NOCC1CCCCC1 (stereo not shown) [Example 45]
[2]
  antimycotic action in vitro compared with compound (B): better antimycotic action than compound (B)

## CCCCC(O)(Cn1cncn1)C(C)(C)C=NOCc1ccc(Cl)cc1 (stereo not shown) [Example 46]
[2]
  antimycotic action in vitro compared with compound (B): better antimycotic action than compound (B)

## CC(C)(C=NOCc1ccc(Cl)cc1)C(O)(COc1ccc(Cl)c(Cl)c1)Cn1cncn1 (stereo not shown) [Example 30]
[2]
  antimycotic action in vitro compared with compound (B): better antimycotic action than compound (B)

## CC(C)(C=O)C(O)(CSc1ccc(Br)cc1)Cn1cncn1 (stereo not shown) [Example 19]
[2]
  antimycotic action in vitro compared with compound (B): better antimycotic action than compound (B)

## CC(C)(C=O)C(O)(C#Cc1ccc(-c2ccccc2)cc1)Cn1cncn1 (stereo not shown) [Example 11]
[2]
  antimycotic action in vitro compared with compound (B): better antimycotic action than compound (B)

## CC(C)(C=O)C(O)(CCc1ccc(Cl)cc1Cl)Cn1cncn1 (stereo not shown) [Example 8]
[1]
  action against candidosis of mice compared with compounds (A) and (B): better action than compounds (A) and (B)

## CCCC(O)(Cn1cncn1)C(C)(C)C=NOCc1ccc(Cl)cc1 (stereo not shown) [Example 41]
[2]
  antimycotic action in vitro compared with compound (B): better antimycotic action than compound (B)

## CON=CC(C)(C)C(O)(COc1ccc(Cl)cc1Cl)Cn1cncn1 (stereo not shown) [Example 24]
[1]
  action against candidosis of mice compared with compounds (A) and (B): better action than compounds (A) and (B)

## CON=CC(C)(C)C(O)(C#Cc1ccc(Cl)cc1)Cn1cncn1 (stereo not shown) [Example 10]
[1]
  action against candidosis of mice compared with compounds (A) and (B): better action than compounds (A) and (B)
[2]
  antimycotic action in vitro compared with compound (B): better antimycotic action than compound (B)

## CON=CC(C)(C)C(O)(CSc1ccc(Br)cc1)Cn1cncn1 (stereo not shown) [Example 18]
[1]
  action against candidosis of mice compared with compounds (A) and (B): better action than compounds (A) and (B)
[2]
  antimycotic action in vitro compared with compound (B): better antimycotic action than compound (B)
[3]
  action (local) on experimental trichophytosis, in words: good action

## CON=CC(C)(C)C(O)(C#Cc1ccc(Cl)cc1Cl)Cn1cncn1 (stereo not shown) [Example 13]
[1]
  action against candidosis of mice compared with compounds (A) and (B): better action than compounds (A) and (B)
[2]
  antimycotic action in vitro compared with compound (B): better antimycotic action than compound (B)

## CC(C)(C=NOCc1ccc(Cl)cc1Cl)C(O)(CCc1ccc(Cl)cc1)Cn1cncn1 (stereo not shown) [Example 29]
[2]
  antimycotic action in vitro compared with compound (B): better antimycotic action than compound (B)

## CON=CC(C)(C)C(O)(CCc1ccc(Cl)cc1)Cn1cncn1 (stereo not shown) [Example 22]
[2]
  antimycotic action in vitro compared with compound (B): better antimycotic action than compound (B)
[3]
  action (local) on experimental trichophytosis, in words: good action

## C=CCON=CC(C)(C)C(O)(CSc1ccc(Cl)cc1)Cn1cncn1 (stereo not shown) [Example 33]
[2]
  antimycotic action in vitro compared with compound (B): better antimycotic action than compound (B)

## CON=CC(C)(C)C(O)(C#Cc1ccc(-c2ccccc2)cc1)Cn1cncn1 (stereo not shown) [Example 12]
[1]
  action against candidosis of mice compared with compounds (A) and (B): better action than compounds (A) and (B)
[2]
  antimycotic action in vitro compared with compound (B): better antimycotic action than compound (B)

## CC(C)(C=O)C(O)(CCc1ccc(Cl)cc1)Cn1ccnc1 (stereo not shown) [Example 16]
[1]
  action against candidosis of mice compared with compounds (A) and (B): better action than compounds (A) and (B)

## CCCC(O)(Cn1cncn1)C(C)(C)C=NOCc1ccc(Cl)cc1Cl (stereo not shown) [Example 42]
[2]
  antimycotic action in vitro compared with compound (B): better antimycotic action than compound (B)

## CON=CC(C)(C)C(O)(CSc1ccc(C(F)(F)F)c(Cl)c1)Cn1cncn1 (stereo not shown) [Example 17]
[2]
  antimycotic action in vitro compared with compound (B): better antimycotic action than compound (B)

## CCC(O)(Cn1cncn1)C(C)(C)C=NOCc1ccc(Cl)cc1 (stereo not shown) [Example 43]
[2]
  antimycotic action in vitro compared with compound (B): better antimycotic action than compound (B)

## CCCCON=CC(C)(C)C(O)(CCc1ccc(Cl)cc1)Cn1cncn1 (stereo not shown) [Example 23]
[1]
  action against candidosis of mice compared with compounds (A) and (B): better action than compounds (A) and (B)
[2]
  antimycotic action in vitro compared with compound (B): better antimycotic action than compound (B)

## CC(C)(C=O)C(O)(CCc1ccc(Cl)cc1)Cn1cncn1 (stereo not shown) [Example 7]
[2]
  antimycotic action in vitro compared with compound (B): better antimycotic action than compound (B)

## CC(C)(C=O)C(O)(COc1ccc(-c2ccccc2)cc1)Cn1cncn1 (stereo not shown) [Example 5]
[1]
  action against candidosis of mice compared with compounds (A) and (B): better action than compounds (A) and (B)

## CON=CC(C)(C)C(O)(Cn1cncn1)c1ccc(Cl)cc1 (stereo not shown) [Example 37]
[1]
  action against candidosis of mice compared with compounds (A) and (B): better action than compounds (A) and (B)
[2]
  antimycotic action in vitro compared with compound (B): better antimycotic action than compound (B)
[3]
  action (local) on experimental trichophytosis, in words: good action
